Results published in article PMC6974402 (Nature, 2019).
pIC50: −log10 of the molar value.

Experiments:
SAP3 = target: T1, SAP3 (Anopheles gambiae, UniProt Q6H8Z2); test: 1-NPN fluorescence displacement; type: binding
T1 sequence (Q6H8Z2 18-126): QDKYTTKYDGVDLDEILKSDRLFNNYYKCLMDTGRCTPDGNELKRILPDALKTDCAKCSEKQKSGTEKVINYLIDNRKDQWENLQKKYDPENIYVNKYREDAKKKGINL

SAP1 = target: T2, SAP1 (Anopheles gambiae, UniProt Q7Q3U7); test: 1-NPN fluorescence displacement; type: binding
T2 sequence (Q7Q3U7 18-127): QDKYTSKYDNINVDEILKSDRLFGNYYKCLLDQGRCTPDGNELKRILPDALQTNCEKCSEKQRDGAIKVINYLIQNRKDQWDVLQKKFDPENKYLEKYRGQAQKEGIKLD

CC1(C)[C@H](C(=O)O[C@H](C#N)c2cccc(Oc3ccccc3)c2)[C@@H]1C=C(Br)Br [deltamethrin]
pIC50 (SAP3): < 5.00
pIC50 (SAP1): < 5.00

CC1(C)C(C=C(Cl)Cl)C1C(=O)OC(C#N)c1cccc(Oc2ccccc2)c1 (stereo not drawn) [α-cypermethrin]
pIC50 (SAP1): 5.04
